We go through 9 molecules from paper PMC5520994 (Science signaling, 2017).

One experiment concerns the target IL-17A/IL-17RA binding (Homo sapiens, UniProt Q96F46). In words: Ligand-receptor binding inhibition assay.
Experiment [1] concerns the target T1, IL-17RA D262A mutant (Homo sapiens, UniProt Q96F46, D293A). In words: Microscale thermophoresis of IL-17A binding to IL-17RA D262A mutant. The note with it: read-out: binding affinity (Kd) of IL-17RA D262A for IL-17A, MST.
The test system of experiment [2] is IL-17A. Kind of experiment: IL-17A–stimulated cytokine and chemokine production in human cells. In kind it is cell-based. The note with it: 24 hours, ELISA. On the technique in general: ELISA stands for enzyme-linked immunosorbent assay.
The next experiment has as its system IL-17A/IL-17F. In words: IL-17A/IL-17F–stimulated expression of target genes in cultured cells. The experiment is classed as cell-based.
Another experiment concerns the target T2, IL-17E/IL-17RB binding (Homo sapiens, UniProt Q9NRM6).
T2 sequence (Q9NRM6 18-289): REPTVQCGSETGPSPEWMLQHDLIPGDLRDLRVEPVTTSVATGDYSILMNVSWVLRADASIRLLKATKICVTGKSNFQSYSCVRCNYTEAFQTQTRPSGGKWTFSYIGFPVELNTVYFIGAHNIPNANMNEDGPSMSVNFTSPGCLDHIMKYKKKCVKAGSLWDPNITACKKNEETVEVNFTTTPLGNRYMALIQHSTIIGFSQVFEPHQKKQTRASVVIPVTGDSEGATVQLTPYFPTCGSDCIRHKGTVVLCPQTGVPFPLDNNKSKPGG
Kind of experiment: Ligand-receptor binding inhibition assay. The note with it: serial dilutions, purified proteins.

For experiment [3], the system named is WT BALB/cJ mice. Kind of experiment: Intranasal injection of IL-17E, pulmonary eosinophilia. The experiment is classed as in vivo. The note with it: A18 60 μg per mouse intranasally, 24 hours.
For experiment [4], the system named is WT C57BL/6 mice. In words: TPA-induced skin hyperplasia. The note with it: dorsal skin, RT-PCR (Myc, Cxcl1, Steap4), day 7. In kind it is in vivo, mouse.
Experiment [5] has as its system IL-17E. Kind of experiment: IL-17E–stimulated CXCL1 production / target gene expression in HT29 cells. The experiment is classed as cell-based, human. The note with it: 24 hours.
The test system of experiment [6] is WT BALB/cJ mice. Kind of experiment: Intranasal injection of IL-17A, pulmonary neutrophilia. In kind it is in vivo. The note with it: A18 60 μg per mouse intranasally, 4 hours.
A further experiment relates to WT C57BL/6J mice. Kind of experiment: Adoptive transfer of MOG-specific TH17 cells to induce EAE. In kind it is in vivo, mouse.
The subject of experiment [7] is WT C57BL/6 mice. In words: Intradermal injection of IL-17A into ears, epidermal hyperplasia. The experiment is classed as in vivo, mouse. The note with it: IL-17 plus A18 vs PBS-treated mice, RT-PCR.
Experiment [8] has as its system WT C57BL/6 mice. Kind of experiment: Adoptive transfer of OVA-specific TH17 cells, neutrophilic airway inflammation. In kind it is in vivo, mouse. The note with it: TH17 cell transfer, RT-PCR.
The next experiment relates to IL-17F. In words: IL-17F–stimulated expression of target genes in cultured cells. The experiment is classed as cell-based.
In a further experiment the target is IL-17RA (Homo sapiens, UniProt Q96F46). In words: Surface plasmon resonance. In kind it is binding. The note with it: immobilized IL-17RA on CM5 chip. In general terms: SPR reads the build-up and loss of mass on a sensor chip optically.
Experiment [9] concerns IL-17E. In kind it is cell-based, mouse. The note with it: IL-17RB–expressing MEFs, 24 hours.
A further experiment addresses IL-17RA (WT) (Homo sapiens, UniProt Q96F46). In words: Fluorescence quenching assay of A18 binding to labeled IL-17RA.
Experiment [10] relates to IL-17A. Kind of experiment: IL-17A–mediated signaling events in HeLa cells. In kind it is cell-based, human.
The target of experiment [11] is T1, IL-17RA D262A mutant. In words: Fluorescence quenching assay of A18 binding to labeled IL-17RA D262A mutant.
The subject of experiment [12] is WT C57BL/6 mice. Kind of experiment: Adoptive transfer of OVA-specific TH2 cells, eosinophilic airway inflammation. In kind it is in vivo, mouse. The note with it: RT-PCR.
Experiment [13] has as its system WT C57BL/6 mice. In words: HDM-induced severe asthma model. In kind it is in vivo. The note with it: A18 120 μg per mouse i.p. days 13 and 14 plus 60 μg per mouse intranasally 1 hour before challenge.
A further experiment has as its target T3, IL-17C/IL-17RE binding (Homo sapiens, UniProt Q8NFR9).
T3 sequence (Q8NFR9 155-454): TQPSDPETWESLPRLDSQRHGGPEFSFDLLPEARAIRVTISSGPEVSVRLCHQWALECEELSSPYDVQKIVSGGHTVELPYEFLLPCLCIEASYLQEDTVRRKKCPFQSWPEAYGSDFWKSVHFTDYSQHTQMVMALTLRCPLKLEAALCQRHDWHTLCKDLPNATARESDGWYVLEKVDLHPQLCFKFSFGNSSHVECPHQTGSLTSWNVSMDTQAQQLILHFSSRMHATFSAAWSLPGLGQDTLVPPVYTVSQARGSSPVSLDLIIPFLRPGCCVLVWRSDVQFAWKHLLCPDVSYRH
Kind of experiment: Ligand-receptor binding inhibition assay. The note with it: serial dilutions, purified proteins.

Experiment [14] addresses IL-17RA on IL-17RA–293 cells and HeLa cells (Homo sapiens, UniProt Q96F46). In words: Binding of biotinylated IL-17A to live cells, flow cytometry. The note with it: A18 10 μM. The experiment is classed as cell-based.
Experiment [15] has as its system IL-17A. Kind of experiment: IL-17A–stimulated cytokine and chemokine production in mouse cells. In kind it is cell-based. The note with it: 24 hours, ELISA.
For experiment [16], the target named is human IL-17RA D262A mutant protein (soluble, secreted, hexahistidine-tagged) (human). Kind of experiment: MST.
For the next experiment, the target named is T4, human IL-17RB-Fc (human, UniProt Q9NRM6 18-289).
T4 sequence (looked up): T2 sequence (Q9NRM6 18-289)
Kind of experiment: ELISA.

The next experiment deals with T5, human IL-17RE-Fc (human, UniProt Q8NFR9 155-454).
T5 sequence (looked up): T3 sequence (Q8NFR9 155-454)
Kind of experiment: ELISA.

[17] abbreviates: TH17 cell–mediated EAE, flow cytometry.

“Also recorded” adds a separate entry of the source. Where two headings read alike, the source gives them in different places.

IL-17A/IL-17RA binding, sequence (Q96F46 33-322): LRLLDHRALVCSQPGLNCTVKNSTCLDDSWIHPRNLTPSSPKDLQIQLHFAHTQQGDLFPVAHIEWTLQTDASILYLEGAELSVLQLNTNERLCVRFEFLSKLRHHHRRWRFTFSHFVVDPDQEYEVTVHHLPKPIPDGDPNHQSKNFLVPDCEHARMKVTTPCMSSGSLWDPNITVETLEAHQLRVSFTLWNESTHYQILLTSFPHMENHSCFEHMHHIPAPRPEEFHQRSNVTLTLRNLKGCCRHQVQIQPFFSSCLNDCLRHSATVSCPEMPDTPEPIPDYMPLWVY
T1 sequence (Q96F46 33-320 D293A): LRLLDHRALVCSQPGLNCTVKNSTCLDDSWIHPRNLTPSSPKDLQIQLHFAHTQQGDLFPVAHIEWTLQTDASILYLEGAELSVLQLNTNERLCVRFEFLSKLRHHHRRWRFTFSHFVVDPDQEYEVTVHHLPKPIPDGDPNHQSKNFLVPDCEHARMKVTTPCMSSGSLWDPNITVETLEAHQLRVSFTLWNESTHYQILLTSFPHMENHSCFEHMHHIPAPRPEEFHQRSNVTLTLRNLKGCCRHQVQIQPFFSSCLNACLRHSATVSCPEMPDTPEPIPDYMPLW
IL-17RA on IL-17RA–293 cells and HeLa cells, sequence (Q96F46 33-866): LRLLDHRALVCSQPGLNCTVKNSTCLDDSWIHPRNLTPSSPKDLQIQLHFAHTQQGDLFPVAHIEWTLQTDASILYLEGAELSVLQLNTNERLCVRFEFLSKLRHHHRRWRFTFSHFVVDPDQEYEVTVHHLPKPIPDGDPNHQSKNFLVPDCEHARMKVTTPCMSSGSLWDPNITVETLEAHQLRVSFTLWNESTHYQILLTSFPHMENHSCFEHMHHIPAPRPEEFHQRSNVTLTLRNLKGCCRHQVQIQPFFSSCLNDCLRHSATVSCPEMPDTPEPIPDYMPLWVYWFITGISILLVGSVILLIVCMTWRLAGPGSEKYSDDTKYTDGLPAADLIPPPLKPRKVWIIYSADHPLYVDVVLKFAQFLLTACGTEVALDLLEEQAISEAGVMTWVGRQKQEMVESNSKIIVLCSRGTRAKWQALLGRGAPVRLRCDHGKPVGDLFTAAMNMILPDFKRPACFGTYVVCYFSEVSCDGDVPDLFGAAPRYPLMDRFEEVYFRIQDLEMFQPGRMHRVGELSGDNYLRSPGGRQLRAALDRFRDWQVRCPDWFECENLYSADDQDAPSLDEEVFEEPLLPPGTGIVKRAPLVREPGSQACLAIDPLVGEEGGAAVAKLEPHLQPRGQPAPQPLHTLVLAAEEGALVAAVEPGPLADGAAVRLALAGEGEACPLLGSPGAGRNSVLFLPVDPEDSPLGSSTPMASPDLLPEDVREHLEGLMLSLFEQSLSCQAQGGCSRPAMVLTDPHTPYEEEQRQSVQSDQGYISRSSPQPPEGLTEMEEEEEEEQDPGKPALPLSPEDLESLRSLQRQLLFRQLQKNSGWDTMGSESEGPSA
IL-17RA (WT), sequence (Q96F46 33-320 limits assumed): as the sequence (Q96F46 33-320 D293A) above, with A261D counted along it
IL-17RA, sequence (Q96F46 33-320 limits assumed): as the sequence (Q96F46 33-320 D293A) above, with A261D counted along it

As to `Oc1cc(O)c2cc(O)c(-c3cc(O)c(O)c(O)c3)[o+]c2c1` [A10, delphinidin], the “IC50 value compared to that of A18, IL-17A/IL-17RA binding” value on IL-17A/IL-17RA binding (in words, relative to A18) is recorded as “slightly improved”.

Turning to “IL-17A: purified recombinant human interleukin-17A, cytokine ligand of IL-17RA”, in the experiment with IL-17RA D262A mutant [1], the Kd is 1570 nM.

On to `Oc1cc(O)c2cc(O)c(-c3ccc(O)c(O)c3)[o+]c2c1.[Cl-]` [A18, 2-(3,4-dihydroxyphenyl)-3,5,7-trihydroxy-1-benzopyrylium chloride], for which, in the experiment with IL-17A [2], the “IL-17A–stimulated production of CXCL1 (GROα), IL-6 and IL-8” value is listed as “substantially inhibited”. The “IL-17A/IL-17F–stimulated expression of target genes” value in the experiment with IL-17A/IL-17F was “inhibited”. Besides, the “disruption of IL-17E/IL-17RB binding” value at IL-17E/IL-17RB binding is “did not efficiently disrupt”. The “IL-17E–induced pulmonary eosinophilia” value with WT BALB/cJ mice [3] is on record as “did not inhibit”. For the same molecule, the “TH2 cell–associated gene expression in lung” value with WT BALB/cJ mice [3] (IL-17E) was “did not inhibit”. For the same molecule, the “TPA-induced expression of target genes” value with WT C57BL/6 mice [4] is recorded as “substantially reduced”. In addition, the “IL-17E–stimulated production of CXCL1 / expression of target genes” value with IL-17E [5] is given as “limited inhibitory activity; also recorded: little effect”. Besides, in the experiment with WT BALB/cJ mice [6], the “IL-17A–induced pulmonary neutrophilia” value is given as “substantially inhibited” and the “expression of IL-17A target genes (Cxcl1, Il6, Ccl11) in lung” value is recorded as “substantially inhibited”. Further, in the experiment with WT C57BL/6J mice (A18 withdrawn on day 15, compared with mice never treated with A18), the “EAE disease severity (peak and remission stages) after cessation of A18” value was “substantially reduced”. For the same molecule, the “numbers of CD4+CD25+Foxp3+ Treg cells in lymphoid organs or CNS” value with WT C57BL/6J mice (EAE recovery phase (day 20)) is reported as “did not affect”. Besides, in the experiment on WT C57BL/6J mice (TH17 cell–mediated EAE), the “demyelination in the spinal cords” value is on record as “diminished demyelination” and the “expression of IL-17A target genes” value was “reduced expression”. Also, in the experiment with WT C57BL/6J mice (setting [17]), the “infiltration into the brains of CD4+ T cells, CD8+ T cells or F4/80+ macrophages” value was “no effect” and the “recruitment of Ly6G+ neutrophils into the brains” value was “substantially reduced”. Moreover, the “abundances of Myc, Cxcl1 and Steap4 mRNAs in the ears” value in the experiment with WT C57BL/6 mice [7] is listed as “not substantially increased”. The “inflammatory gene expression in the lungs” value with WT C57BL/6 mice [8] is reported as “substantially reduced”. In the experiment on IL-17F, the “IL-17F–stimulated expression of target genes” value is “inhibited”. Further, at IL-17RA, the “binding to IL-17RA by SPR” value is “confirmed the binding”. For the same molecule, in the experiment on IL-17E [9], the “IL-17E–stimulated production of CXCL1 / expression of target genes” value was “limited inhibitory activity; also recorded: little effect”. The molecule also came in with a Kd at IL-17RA (WT) of roughly 3 µM. Also, the “IL-17A–mediated recruitment of Act1 to IL-17RA” value with IL-17A [10] (10 μM A18) is recorded as “decreased”. Moreover, the “IL-17A–mediated phosphorylation of IκBα, JNK, p38 and ERK1/2” value in the experiment with IL-17A [10] (pretreated 1 hour with 10 μM A18) is listed as “decreased”. Also, the Kd on IL-17RA D262A mutant [11] turned out to be 6.35 µM. Further, the “expression of genes encoding TH2 cell–type cytokines in the lungs” value in the experiment with WT C57BL/6 mice [12] was “no effect”. In addition, in the experiment on WT C57BL/6 mice [13], the “HDM-induced AHR” value is given as “substantially reduced”, the “HDM-induced inflammatory gene expression in the lungs” value was “substantially reduced” and the HDM-induced neutrophilia result was “substantially reduced”. In addition, at IL-17C/IL-17RE binding, the “disruption of IL-17C/IL-17RE binding” value is “did not efficiently disrupt”. The molecule further gave an IC50 at IL-17A/IL-17RA binding of 1.68 µM. Also, the “binding of IL-17A to ectopically expressed or endogenous IL-17RA on live cells” value in [14] is “inhibited”. Further, the “IL-17A–stimulated production of CXCL1 (KC), IL-6 and CXCL2 (MIP-2)” value in the experiment on IL-17A [15] was “substantially inhibited”.

Take `Oc1cc(O)c2ccc(-c3ccc(O)c(O)c3)[o+]c2c1` [luteolinidin]: the IC50 at IL-17A/IL-17RA binding worked out at 6.75 µM.

In experiment [16], “purified recombinant human IL-17A (from UniProt Q16552 24-155) (ligand)” registered a Kd of 1570 nM.

Molecule `Oc1ccc(-c2[o+]c3cc(O)cc(O)c3cc2O)cc1` [pelargonidin] showed an IC50 at IL-17A/IL-17RA binding greater than 100 µM.

Take `OC[C@H]1O[C@@H](Oc2cc3c(O)cc(O)cc3[o+]c2-c2ccc(O)c(O)c2)[C@H](O)[C@@H](O)[C@@H]1O` [cyanidin-3-O-glucoside]: the IC50 on IL-17A/IL-17RA binding (read-out: IC50, inhibition of IL-17A/IL-17RA binding, in vitro ligand-receptor binding inhibition assay, purified proteins) amounted to 6.88 µM.

B1: purified recombinant human IL-17E (IL-25) (ligand, UniProt Q9H293 33-177, looked up)
chain: YSHWPSCCPSKGQDTSEELLRWSTVPVPPLEPARPNRHPESCRASEDGPLNSRAISPWRYELDRDLNRLPQDLYHARCLCPHCVSLQTGSHMDPRGNSELLYHNQTVFYRRPCHGEKGTHKGYCLERRLYRVSLACVCVRPRVMG
Consider B1, for which the binding result with human IL-17RB-Fc is on record as “binds”.

B2: purified recombinant human IL-17C (ligand, UniProt Q9P0M4 19-197, looked up)
chain: HHDPSLRGHPHSHGTPHCYSAEELPLGQAPPHLLARGAKWGQALPVALVSSLEAASHRGRHERPSATTQCPVLRPEEVLEADTHQRSISPWRYRVDTDEDRYPQKLAFAECLCRGCIDARTGRETAALNSVRLLQSLLVLRRRPCSRDGSGLPTPGAFAFHTEFIHVPVGCTCVLPRSV
For B2, the binding result with human IL-17RE-Fc is listed as “binds”.

The Kd is the free concentration of one partner at which half of the binding sites on the other are occupied at equilibrium, for simple one-to-one binding.
